# According to PMC9305947, “Rational Design of Phe‐BODIPY Amino Acids as Fluorogenic Building Blocks for Peptide‐Based Detection of Urinary Tract Candida Infections” (Angewandte Chemie (International Ed. in English), 2022):
# *1 amine or outer side, *2 acyl side, *3 side chain or, on linkers, in order; H or OH if unused. Where a SMILES comes first, the peptide text is derived from it. Where no end group is shown, it is not given here. [ ]: non-standard residue; d: D form. X1 = COc1ccc(C2=[N+]3C(=C(c4ccc(C[C@H](N[*:1])C(=O)[*:2])cc4)c4ccc(-c5ccc(OC)cc5)n4[B-]3(F)F)C=C2)cc1
# Tests used:
# C. inconspicua = format: cell-based, Candida inconspicua; settings: 48 h
# Experimental: (§1) Figure 4 a) Synthetic procedure for the preparation Fmoc‐Phe(pMP‐BODIPY)‐OH (11). Inset: pictures of solutions of probe 17 (30 μM) under excitation with a 365 nm UV‐lamp in PBS (left) and in liposomes (right). b) Minimum inhibitory concentration (MIC) values of peptides 12–16 against different Candida strains (5×10^5 cells mL^−1) in 20 % Vogel's medium after 48 h incubation at 37 °C. MIC was determined by brightfield microscopy from three independent experiments. c) Chemical structure of peptide 17 and fluorogenic response (25 μM) in PBS (black) and in aqueous suspensions containing liposomes (red). λ exc: 530 nm (n=3). d) MIC values of peptide 17 against different Candida strains and bacteria (5×10^5 cells mL^−1) in 10 % liquid LB medium after 48 h incubation at 37 °C. MIC was determined by brightfield microscopy from three independent experiments (n=3). e) Normalised fluorescence of probe 17 (30 μM) when incubated in diluted urine samples under continuous light irradiation. λ exc: 530 nm. Data presented as mean±SD (n=3). TEXT PRINTED IN THE PICTURE: (a) no label printed: QY 0.08% (OFF); QY 14.9% (ON) | (b) 12: MIC (μmol L^-1) C. inconspic.: 60; MIC (μmol L^-1) C. arius: > 60; MIC (μmol L^-1) C. albicans: 15; MIC (μmol L^-1) C. rugosa: 15; MIC (μmol L^-1) C. glabrata: 30; MIC (μmol L^-1) C. krusei: 30 | (b) 13: MIC (μmol L^-1) C. inconspic.: 2; MIC (μmol L^-1) C. arius: 4; MIC (μmol L^-1) C. albicans: 4; MIC (μmol L^-1) C. rugosa: 16; MIC (μmol L^-1) C. glabrata: 8; MIC (μmol L^-1) C. krusei: 4 | (b) 14: MIC (μmol L^-1) C. inconspic.: > 60; MIC (μmol L^-1) C. arius: > 60; MIC (μmol L^-1) C. albicans: > 60; MIC (μmol L^-1) C. rugosa: > 60; MIC (μmol L^-1) C. glabrata: > 60; MIC (μmol L^-1) C. krusei: > 60 | (b) 15: MIC (μmol L^-1) C. inconspic.: 4; MIC (μmol L^-1) C. arius: > 60; MIC (μmol L^-1) C. albicans: 16; MIC (μmol L^-1) C. rugosa: > 60; MIC (μmol L^-1) C. glabrata: 16; MIC (μmol L^-1) C. krusei: 8 | (b) 16: MIC (μmol L^-1) C. inconspic.: 2; MIC (μmol L^-1) C. arius: 32; MIC (μmol L^-1) C. albicans: 4; MIC (μmol L^-1) C. rugosa: 32; MIC (μmol L^-1) C. glabrata: 4; MIC (μmol L^-1) C. krusei: 8 | (c) peptide 17: λexc.: 530 nm; λem.: 625 nm | (d) peptide 17: MIC (μmol L^-1) C. inconspicua: 8; MIC (μmol L^-1) C. arius: 64; MIC (μmol L^-1) C. albicans: 16; MIC (μmol L^-1) C. rugosa: 64; MIC (μmol L^-1) C. glabrata: 32; MIC (μmol L^-1) C. krusei: 8; MIC (μmol L^-1) E. Coli: > 200 DOUBTS OF THE COPYIST ABOUT THIS PICTURE: Panel a, QY 0.08% / 14.9%: the picture prints no substance label beside the OFF/ON photographs, so the label is left empty / Panel d: the table itself prints no substance label; it is assigned to 'peptide 17', printed directly above it in panel c / Panel c, λexc. 530 nm and λem. […]
# C. albicans = format: cell-based, Candida albicans; settings: 48 h
# Experimental: as §1
# C. rugosa = format: cell-based, Candida rugosa; settings: 48 h
# Experimental: as §1
# C. glabrata = format: cell-based, Candida glabrata; settings: 48 h
# Experimental: as §1
# C. krusei = format: cell-based, Candida krusei; settings: 48 h
# Experimental: as §1
# [1] = format: in vitro ADME, human; settings: diluted urine (urine:water 1:6)
# Description: To the best of our knowledge, compound 11 represents the first example of a Phe‐based BODIPY amino acid for SPPS with strong emission in the red region of the visible spectrum. Prior to the incorporation of Phe‐(pMP)BODIPY amino acid 11 into peptides that could detect Candida fungal cells, we prepared a small collection of Phe‐containing antimicrobial peptides as fungal‐targeting scaffolds that could later accommodate BODIPY‐based aromatic FlAAs (Figure 4b). We selected peptide analogues derived from the natural occurring temporin L (Rana temporaria, peptide 12),[31] jelleine‐I (Apis mellifera, peptide 13)[32] and Aurein1.2 (Litoria aurea or Litoria raniformis, peptide 15).[33] […] We next analysed the biological profile of peptide 17 in fungal cells and its selectivity over bacteria. […] Furthermore, we evaluated the photo‐ and chemical stability of the peptide 17 in human urine upon continuous light irradiation. In these assays, we ran both fluorescence and HPLC analysis to confirm that the peptide 17 was fully stable for the clinical evaluation of urine samples using fluorescence‐based assays (Figure 4e and Figure S13).
# […] Environmental sensitivity was measured by comparing the fl uore sce nc e emission in Me OH vs gl yc e rol (c om pounds 4-7) a nd i n pre se nc e of l i posom e suspe nsi ons i n PB Sor PBS a l one (c om pound 17). […]
Compound,MIC C. inconspic. (C. inconspicua) [µmol/L],MIC C. albicans (C. albicans) [µmol/L],MIC C. rugosa (C. rugosa) [µmol/L],MIC C. glabrata (C. glabrata) [µmol/L],MIC C. krusei (C. krusei) [µmol/L],"Photostability in human urine upon continuous light irradiation ([1]; 30 µM, 384-well plates, 37 °C, fluorescence emission 644 nm, λexc 530 nm, mean of three independent experiments n=3)","Chemical stability (integrity) in human urine ([1]; 100 µM, 37 °C, 0, 1 and 10 h, HPLC-MS, absorbance 570 nm)"
CC[C@H](C)[C@@H]1NC(=O)[C@H](CCCCN)NC(=O)[C@H](Cc2ccccc2)NC(=O)[C@H](Cc2c[nH]c3ccccc23)NC(=O)[C@H](CCCCN)NC(=O)[C@H](CCCCN)NC(=O)[C@H]([C@@H](C)CC)NC1=O [compound 16] (cyclo(FKIIKKW)),2,4,32,4,8,–,–
WFKIIKK-NH2 [peptide 15],4,16,> 60,16,8,–,–
"CC[C@H](C)[C@H](NC(=O)[C@H](CO)NC(=O)[C@@H](NC(=O)[C@H](CCCCN)NC(=O)[C@H](Cc1ccc(C2=C3C=CC(c4ccc(OC)cc4)=[N+]3[B-](F)(F)n3c2ccc3-c2ccc(OC)cc2)cc1)NC(=O)[C@@H]1CCCN1)[C@@H](C)CC)C(=O)N[C@@H](Cc1c[nH]cn1)C(=O)N[C@@H](CC(C)C)C(N)=O [peptide 17, H-Pro-Phe(pMP-BODIPY)-Lys-Ile-Ser-Ile-His-Leu-NH2] (H-P[X1]KISIHL-NH2)",–,–,–,–,–,fully stable,fully stable
"H-FVQWFSKFLGKIL-NH2 [peptide 12, H-Phe-Val-Gln-Trp-Phe-Ser-Lys-Phe-Leu-Gly-Lys-Ile-Leu-NH2]",60,15,15,30,30,–,–
CC[C@H](C)[C@@H]1NC(=O)[C@H](CO)NC(=O)[C@H]([C@@H](C)CC)NC(=O)[C@H](CCCCN)NC(=O)[C@H](Cc2ccccc2)NC(=O)[C@@H]2CCCN2C(=O)[C@H](CC(C)C)NC(=O)[C@H](Cc2c[nH]cn2)NC1=O [peptide 14] (cyclo(FKISIHLP)),> 60,> 60,> 60,> 60,> 60,–,–
